{"source": "patent US20250082598A1", "about": "“Melafenoxate, 2-(1-adamantylamino)ethyl 2-(4-chlorophenoxy)acetate and derivatives thereof for treating circadian rhythm sleep disorders with neurodegenerative diseases such as Alzheimer's disease” (NLS Pharmaceutics AG, priority 2021, published 2025)", "tested_on": "C57BL/6J mice", "test": "Scopolamine-induced amnesia in the novel object recognition (NOR) test", "format": "in vivo", "conditions": "scopolamine 1.2 mg/kg i.p. alone", "description": "The scopolamine-induced amnesia in the novel object recognition (NOR) test in mice is a recognized in vivo model of Alzheimer Disease (AD).\nThe aim of this study is to examine whether Melafenoxate (NLS-8) improves amnesia induced by scopolamine in the NOR test.\nExperiments were carried out on C57BL/6J mice.\nIn a first step of the experiment, NLS-8 was tested at 25, 50 and 100 mg/kg.\nAnimals were divided into 6 groups (N=4-10/group).\nAt T=0 min, they received the following treatments by intraperitoneal (i.p.) route: • Control group: vehicle. • Scopolamine group: scopolamine (1.2 mg/kg). • NLS-8 25 group: NLS-8 (25 mg/kg)+scopolamine (1.2 mg/kg). • NLS-8 50 group: NLS-8 (50 mg/kg)+scopolamine (1.2 mg/kg). • NLS-8 100 group: NLS-8 (100 mg/kg)+scopolamine (1.2 mg/kg). • NLS-8 150 group: NLS-8 (150 mg/kg)+scopolamine (1.2 mg/kg).\nAt T=30 min following treatment, animals were subjected to a sample trial. They were placed for a 12-min session in a circular experimental box in which two identical objects were presented (50% of animals: two brown cylindrical vials; 50% of animals: two black rectangular columns). At t=120 min following treatments, mice were subjected to a choice trial. They were placed again for a 12-min session in the same experimental box in which two different objects (a vial and a column) were presented: one of the objects (termed as familiar object) presented in the sample trial and a novel object. Exploration of the objects was recorded by an experimenter blind to treatment and unaware of which object was the novel one and which object was the familiar one.\nDI(discrimination index)=100 ×(exploration time of the novel object−exploration time of the familiar object)/(exploration time of the novel object+exploration time of the familiar object). • Index of exploration: N+F=exploration time of the novel object+exploration time of the familiar object.\n• Within group comparisons: DI vs. 0 (paired Student's t test). • Between group comparisons vs. the Control group and vs. the Scopo group: unpaired Student's t test."}
{"compound": "CN1[C@@H]2C[C@@H](OC(=O)[C@H](CO)c3ccccc3)C[C@H]1[C@@H]1O[C@@H]12", "note": "[Scopo, scopolamine, reference compound]", "values": [{"measurement": "discrimination index vs. 0 (within group)", "result": "Not significantly different from 0"}, {"measurement": "discrimination index vs. Control group", "result": "Significantly lower"}]}
